PubChem BioAssay (NCI)
Where “and” joins values, the source holds several entries; their conditions need not be identical. Equal entries are not always repeated.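 Test compounds were applied to cells in 96-well plates for 48 hours at 5 doses. GI50: concentration for 50% inhibition of growth. At the TGI there is no net growth.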

Assays:
Experiment in all cases: NCI tumour cell line growth inhibition, 48 h
A549 NSCLC = test system: A549 NSCLC
HCT-116 colon = test system: HCT-116 colon
HCT-15 colon = test system: HCT-15 colon
LOX IMVI melanoma = test system: LOX IMVI melanoma
LXFL 529 NSCLC = test system: LXFL 529 NSCLC
OVCAR-8 ovarian = test system: OVCAR-8 ovarian
RPMI-8226 leukemia = test system: RPMI-8226 leukemia
KM12 colon = test system: KM12 colon
UO-31 renal = test system: UO-31 renal

Structure (SMILES)	TGI (A549 NSCLC)	TGI (HCT-116 colon)	TGI (HCT-15 colon)	TGI (LOX IMVI melanoma)	TGI (LXFL 529 NSCLC)	TGI (OVCAR-8 ovarian)	TGI (RPMI-8226 leukemia)	GI50 (A549 NSCLC)	GI50 (HCT-116 colon)	GI50 (HCT-15 colon)	GI50 (KM12 colon)	TGI (KM12 colon)	GI50 (LOX IMVI melanoma)	GI50 (OVCAR-8 ovarian)	GI50 (RPMI-8226 leukemia)	GI50 (UO-31 renal)	TGI (UO-31 renal)
CC1=C[C@H]2c3c([nH]c4ccccc34)C(c3c[nH]c4ccccc34)[C@H]2CC1 (stereo not given in full)	26.4 µM	11.9 µM	18.8 µM	5.83 µM	15.5 µM	28 µM	12 µM	–	–	–	–	–	–	–	–	–	–
CCCCCCCCOC(=O)CC[C@@H](C)[C@H]1CC[C@H]2[C@@H]3[C@H](OC(=O)CCN)C[C@@H]4C[C@H](OC(=O)CCN)CC[C@]4(C)[C@H]3C[C@H](OC(=O)CCN)[C@]12C	27.1 µM	5.43 µM	38.9 µM	4.51 µM	–	4.62 µM	33.6 µM	10.9 µM	2.43 µM	16.4 µM	3.04 µM	7.51 µM	2.23 µM	2.14 µM	8.42 µM	21.9 µM	42 µM
COc1cc2nc(SCc3cc(OC)c(OC)c(OC)c3)n(Cc3ccccc3)c(=O)c2cc1OC	> 100 µM	> 100 µM	> 100 µM	> 100 µM	–	> 100 µM	> 100 µM	3.14 µM	2.42 µM	1.08 µM	2.55 µM	> 100 µM	4.35 µM	6.71 µM	2.84 µM	3.9 µM	> 100 µM
CCNc1cc(-c2cccc(OC(F)(F)F)c2)nc2ccc(N3CCCC3)cc12	10.5 µM	3.43 µM	5.96 µM	3.26 µM	–	8.24 µM	3.92 µM	2.68 µM	1.52 µM	1.71 µM	1.97 µM	4.77 µM	1.69 µM	2.51 µM	1.34 µM	1.36 µM	2.71 µM
CS(=O)(=O)CCNCc1cc(-c2cc3c(Nc4ccc(OCc5cccc(F)c5)c(Cl)c4)ncnc3s2)cs1	> 25 µM	> 25 µM	> 20.9 µM	16.3 µM	–	> 25 µM	23.2 µM	10.8 µM	12 µM	5.55 µM	6.55 µM	> 25 µM	5.56 µM	16.5 µM	6.95 µM	4.52 µM	> 25 µM
Nc1nonc1-c1nc2cnccc2n1C1CC1	> 25 µM	> 25 µM	> 25 µM	> 18 µM	–	> 25 µM	24.4 µM	6.39 µM	5.62 µM	6.61 µM	6.46 µM	> 20.9 µM	6.54 µM	6.83 µM	6.46 µM	2.09 µM	> 25 µM
N#Cc1ccccc1C(Cl)(Cl)c1cnccn1	> 100 µM	–	–	61 µM	> 100 µM	77 µM	–	–	–	–	–	> 100 µM	–	–	–	–	> 100 µM
Cn1c(C(=O)c2ccncc2)cc2ccccc21	> 100 µM	> 100 µM	> 100 µM	> 100 µM	–	> 100 µM	> 100 µM	> 100 µM	72 µM	90.9 µM	75.5 µM	> 100 µM	> 100 µM	46 µM	48.8 µM	27.4 µM	> 100 µM
COc1ccc(NC(=O)CSC2=C(Nc3cccc(Br)c3)C(=O)N(Cc3ccccc3)C2=O)cc1Cl	> 100 µM	> 100 µM	> 100 µM	> 100 µM	–	> 100 µM	> 100 µM	62.4 µM	32.8 µM	> 100 µM	65.5 µM	> 100 µM	40.4 µM	> 100 µM	4.14 µM	12.5 µM	> 100 µM
FC(F)(c1ccc2ncccc2c1)c1nnc2ccc(-c3ccncc3)nn12	> 100 µM	> 100 µM	> 100 µM	> 100 µM	–	> 100 µM	> 100 µM	76.8 µM	95.8 µM	60 µM	69.7 µM	> 100 µM	49.6 µM	84.1 µM	53.3 µM	19.2 µM	> 100 µM
O=C(/C=C/C12c3ccccc3C(c3ccccc31)C1C(=O)NC(=O)C12)c1ccc(Cl)cc1Cl (stereo not given)	6.03 µM	3.05 µM	4.57 µM	3.57 µM	–	3.98 µM	4.41 µM	2.23 µM	1.61 µM	1.9 µM	1.76 µM	3.43 µM	1.88 µM	1.88 µM	1.68 µM	1.4 µM	2.71 µM
COc1cc(F)c(F)c(Nc2ccc(I)cc2F)c1NS(=O)(=O)C1(C[C@H](O)CO)CC1	> 10 µM	> 10 µM	> 10 µM	> 10 µM	–	> 10 µM	> 10 µM	0.628 µM	0.201 µM	1.67 µM	0.371 µM	> 10 µM	0.556 µM	> 6.48 µM	2.66 µM	0.295 µM	> 10 µM
O=C1c2ccccc2-[n+]2ccc3c([nH]c4ccccc43)c21	2.7 µM	0.51 µM	> 100 µM	0.81 µM	–	> 100 µM	0.468 µM	–	–	–	–	0.636 µM	–	–	–	–	3.28 µM
O=C(NOC[C@H](O)CO)c1ccc(F)c(F)c1Nc1ccc(I)cc1F	> 100 µM	> 100 µM	> 100 µM	19.9 µM and > 6.5 µM	–	> 100 µM	> 100 µM	0.946 µM and 0.1 µM	0.0265 µM and 0.0182 µM	2.73 µM and 0.919 µM	0.0456 µM and 0.036 µM	> 100 µM	< 0.0127 µM and 0.0397 µM	21.7 µM and > 7.5 µM	35.9 µM and > 10 µM	0.302 µM and 0.0357 µM	> 72.2 µM
CCCCCCCCCCCCCCCCCC1=NC(C)(C)CN1CC(C)O (stereo not given)	7.12 µM	5.86 µM	3.95 µM	3.44 µM	–	14.5 µM	36 µM	3 µM	2.43 µM	1.88 µM	6.18 µM	19.5 µM	1.81 µM	3.99 µM	14.4 µM	13.8 µM	29.4 µM
CCOC(=O)Nc1nc2ccc(OC)cc2s1	> 100 µM	> 100 µM	> 100 µM	> 100 µM	–	> 100 µM	> 100 µM	> 100 µM	> 100 µM	> 100 µM	> 100 µM	> 100 µM	> 100 µM	> 100 µM	> 100 µM	> 100 µM	> 100 µM
COc1cc(OC)c(C(=O)/C=C/c2cc3c(cc2OCc2ccccc2)OC(C)(C)CC3)cc1CC=C(C)C	> 25 µM	6.41 µM	9.68 µM	7.17 µM	–	> 25 µM	11.6 µM	8.92 µM	2.98 µM	3.84 µM	3.85 µM	8.63 µM	3.25 µM	4.14 µM	2.86 µM	13 µM	> 25 µM
[C](#Cc1ccccc1)[Hg][C]#Cc1ccccc1	> 100 µM	> 100 µM	43.7 µM	63.7 µM	–	60.9 µM	> 100 µM	50.1 µM	72.5 µM	21.1 µM	94.1 µM	> 100 µM	25.4 µM	26.6 µM	13.1 µM	32.5 µM	74.6 µM
CCC1CC2C(=O)N(c3ccccc3)C(=O)C2c2[nH]c3ccccc3c21 (stereo not given)	> 100 µM	–	> 100 µM	47.8 µM	70.4 µM	35.2 µM	> 100 µM	–	–	–	–	> 100 µM	–	–	–	–	> 100 µM
COc1ccc2c(=O)cc(-c3ccccc3)[nH]c2c1	–	> 100 µM	> 100 µM	> 100 µM	–	> 46.6 µM	> 58.4 µM	0.67 µM	0.446 µM	0.518 µM	0.405 µM	> 100 µM	4.17 µM	2.64 µM	0.564 µM	0.716 µM	> 100 µM
O=C1CC2C(=O)c3ccccc3CC2c2ccccc21 (stereo not given)	> 100 µM	> 100 µM	> 100 µM	> 100 µM	–	> 100 µM	64 µM	–	–	–	–	> 100 µM	–	–	–	–	> 100 µM
Cc1nc(-c2ccccc2)n2nc(NCCCN3CCOCC3)ncc12	> 25 µM	> 25 µM	> 25 µM	> 25 µM	–	> 25 µM	> 25 µM	> 25 µM	19.4 µM	12.8 µM	> 25 µM	> 25 µM	15.1 µM	> 25 µM	> 25 µM	4.48 µM	24.4 µM
CC(C)c1cnn2c(NCc3ccccc3)cc(NC[C@H]3CCNC[C@@H]3O)nc12	11.9 µM and 7.97 µM	10.9 µM and 10.8 µM	15.2 µM and 12.2 µM	1.49 µM and 0.542 µM	–	11.6 µM and 8.68 µM	1.82 µM and 4.14 µM	0.342 µM and 0.272 µM	0.168 µM and 0.158 µM	2.94 µM and 2.69 µM	0.353 µM and 0.407 µM	3.31 µM and 2.5 µM	0.0945 µM and 0.0967 µM	0.555 µM and 0.745 µM	0.158 µM and 0.211 µM	2 µM and 2.65 µM	11.8 µM and 12 µM
COc1ccc(-c2ccncc2)cc1C(N)=O	> 25 µM	> 25 µM	> 25 µM	> 25 µM	–	> 25 µM	> 25 µM	> 25 µM	> 25 µM	> 25 µM	> 25 µM	> 25 µM	> 25 µM	> 25 µM	> 25 µM	> 25 µM	> 25 µM
